Assay results: US9993494B2, “Compositions and methods for treating fibrotic disease” (eFFECTOR Therapeutics, Inc., priority 2014, dated 2018)

Tested on: normal human lung fibroblasts
Assay: Ribosomal profiling: translational efficiency in TGFβ-treated fibroblasts
Assay type: cell-based
How it was run: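 Genome-wide RPF and total RNA libraries (ARTseq, RNA-Seq) were made from lysates of cycloheximide-treated, PBS-washed cells. After trimming and human-genome mapping, per-gene coding-region counts were compared between RPF and RNA for translational efficiency. Genes scoring low in either fraction were dropped.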

What does the source list for TGFβ?
Log2 TE RPS8 (ENSG00000142937, 5 replicates): 1.611; Log2 TE ACTA1 (ENSG00000143632, 5 replicates): −2.018; change in translational profile of ACTA1 caused by TGFβ (ENSG00000143632, Control vs. TGFβ): A (A = <−2.5); Log2 TE PLEKHA6 (ENSG00000143850, 5 replicates): −2.069; change in translational profile of PLEKHA6 caused by TGFβ (ENSG00000143850, Control vs. TGFβ): B (B = <−1.5 to −2.5); Log2 TE RPS27A (ENSG00000143947, 5 replicates): 1.275; Log2 TE AFF3 (ENSG00000144218, 5 replicates): 1.146; Log2 TE RPL32 (ENSG00000144713, 5 replicates): 1.916; change in translational profile of RPL32 caused by TGFβ (ENSG00000144713, Control vs. TGFβ): E (E = <1.5 to 2.5); Log2 TE NICN1 (ENSG00000145029, 5 replicates): 1.403; Log2 TE RPS3A (ENSG00000145425, 5 replicates): 1.661; Log2 TE RPL37 (ENSG00000145592, 5 replicates): 1.808; change in translational profile of RPL37 caused by TGFβ (ENSG00000145592, Control vs. TGFβ): E (E = <1.5 to 2.5); Log2 TE BTF3 (ENSG00000145741, 5 replicates): 1.13; change in translational profile of BTF3 caused by TGFβ (ENSG00000145741, Control vs. TGFβ): D (D = <1.0 to 1.5); Log2 TE HIGD2A (ENSG00000146066, 5 replicates): 1.196; change in translational profile of HIGD2A caused by TGFβ (ENSG00000146066, Control vs. TGFβ): D (D = <1.0 to 1.5); Log2 TE SLC2A12 (ENSG00000146411, 5 replicates): −1.9708; change in translational profile of CREB5 caused by TGFβ (ENSG00000146592, Control vs. TGFβ): D (D = <1.0 to 1.5); Log2 TE ZNF92 (ENSG00000146757, 5 replicates): −1.238; Log2 TE DENND2A (ENSG00000146966, 5 replicates): −1.156; change in translational profile of DENND2A caused by TGFβ (ENSG00000146966, Control vs. TGFβ): C (C = <−1.0 to −1.5); Log2 TE RPL10 (ENSG00000147403, 5 replicates): 1.691; change in translational profile of RPL10 caused by TGFβ (ENSG00000147403, Control vs. TGFβ): E (E = <1.5 to 2.5); Log2 TE EIF3H (ENSG00000147677, 5 replicates): 1.329; change in translational profile of EIF3H caused by TGFβ (ENSG00000147677, Control vs. TGFβ): E (E = <1.5 to 2.5); Log2 TE SHC3 (ENSG00000148082, 5 replicates): −1.541; Log2 TE RPL7A (ENSG00000148303, 5 replicates): 1.65; change in translational profile of RPL7A caused by TGFβ (ENSG00000148303, Control vs. TGFβ): E (E = <1.5 to 2.5); change in translational profile of EIF3M caused by TGFβ (ENSG00000149100, Control vs. TGFβ): D (D = <1.0 to 1.5); Log2 TE RPS3 (ENSG00000149273, 5 replicates): 1.518; change in translational profile of JPH2 caused by TGFβ (ENSG00000149596, Control vs. TGFβ): F (F = >2.5); change in translational profile of FAU caused by TGFβ (ENSG00000149806, Control vs. TGFβ): D (D = <1.0 to 1.5); Log2 TE CCDC102B (ENSG00000150636, 5 replicates): −2.977; change in translational profile of CCDC102B caused by TGFβ (ENSG00000150636, Control vs. TGFβ): A (A = <−2.5); change in translational profile of FRMD4A caused by TGFβ (ENSG00000151474, Control vs. TGFβ): C (C = <−1.0 to −1.5); Log2 TE CCDC122 (ENSG00000151773, 5 replicates): −1.004; Log2 TE TMEM178 (ENSG00000152154, 5 replicates): 2.016; Log2 TE HOMER1 (ENSG00000152413, 5 replicates): 1.003; change in translational profile of HOMER1 caused by TGFβ (ENSG00000152413, Control vs. TGFβ): D (D = <1.0 to 1.5); Log2 TE PLEKHH2 (ENSG00000152527, 5 replicates): −1.389; change in translational profile of PLEKHH2 caused by TGFβ (ENSG00000152527, Control vs. TGFβ): B (B = <−1.5 to −2.5); Log2 TE UTRN (ENSG00000152818, 5 replicates): −1.085; Log2 TE PTPRD (ENSG00000153707, 5 replicates): −1.186; change in translational profile of ANKH caused by TGFβ (ENSG00000154122, Control vs. TGFβ): D (D = <1.0 to 1.5); Log2 TE ABCA6 (ENSG00000154262, 5 replicates): −2.167; change in translational profile of ABCA6 caused by TGFβ (ENSG00000154262, Control vs. TGFβ): A (A = <−2.5); change in translational profile of OBSCN caused by TGFβ (ENSG00000154358, Control vs. TGFβ): B (B = <−1.5 to −2.5); Log2 TE NCAM2 (ENSG00000154654, 5 replicates): −1.135; change in translational profile of ADAMTS5 caused by TGFβ (ENSG00000154736, Control vs. TGFβ): C (C = <−1.0 to −1.5); change in translational profile of OXA1L caused by TGFβ (ENSG00000155463, Control vs. TGFβ): D (D = <1.0 to 1.5); Log2 TE C9orf85 (ENSG00000155621, 5 replicates): 1.112; change in translational profile of C9orf85 caused by TGFβ (ENSG00000155621, Control vs. TGFβ): D (D = <1.0 to 1.5); Log2 TE FMN2 (ENSG00000155816, 5 replicates): −1.246; Log2 TE CLIC2 (ENSG00000155962, 5 replicates): −2.392; Log2 TE UQCRB (ENSG00000156467, 5 replicates): 1.048; Log2 TE RPL30 (ENSG00000156482, 5 replicates): 1.622; change in translational profile of RPL30 caused by TGFβ (ENSG00000156482, Control vs. TGFβ): E (E = <1.5 to 2.5); Log2 TE EEF1A1 (ENSG00000156508, 5 replicates): 1.851; change in translational profile of EEF1A1 caused by TGFβ (ENSG00000156508, Control vs. TGFβ): E (E = <1.5 to 2.5); Log2 TE NRG1 (ENSG00000157168, 5 replicates): 1.162; change in translational profile of NRG1 caused by TGFβ (ENSG00000157168, Control vs. TGFβ): D (D = <1.0 to 1.5); change in translational profile of ADAMTS4 caused by TGFβ (ENSG00000158859, Control vs. TGFβ): D (D = <1.0 to 1.5); Log2 TE RPL8 (ENSG00000161016, 5 replicates): 1.353; change in translational profile of RPL8 caused by TGFβ (ENSG00000161016, Control vs. TGFβ): E (E = <1.5 to 2.5); Log2 TE RPL26 (ENSG00000161970, 5 replicates): 1.655; change in translational profile of RPL26 caused by TGFβ (ENSG00000161970, Control vs. TGFβ): E (E = <1.5 to 2.5); Log2 TE RPL29 (ENSG00000162244, 5 replicates): 1.589; change in translational profile of RPL29 caused by TGFβ (ENSG00000162244, Control vs. TGFβ): E (E = <1.5 to 2.5); change in translational profile of CAMK2N1 caused by TGFβ (ENSG00000162545, Control vs. TGFβ): C (C = <−1.0 to −1.5); Log2 TE NFIA (ENSG00000162599, 5 replicates): −1.2934; Log2 TE ARHGAP25 (ENSG00000163219, 5 replicates): 1.166; change in translational profile of IGFBP7 caused by TGFβ (ENSG00000163453, Control vs. TGFβ): E (E = <1.5 to 2.5); Log2 TE RPL22L1 (ENSG00000163584, 5 replicates): 1.012; change in translational profile of RPL22L1 caused by TGFβ (ENSG00000163584, Control vs. TGFβ): D (D = <1.0 to 1.5); Log2 TE PTX3 (ENSG00000163661, 5 replicates): −1.576; Log2 TE RPL9 (ENSG00000163682, 5 replicates): 1.613; change in translational profile of RPL9 caused by TGFβ (ENSG00000163682, Control vs. TGFβ): E (E = <1.5 to 2.5); Log2 TE TKT (ENSG00000163931, 5 replicates): 1.142; Log2 TE GUCY1A3 (ENSG00000164116, 5 replicates): −1.932; Log2 TE RHOBTB3 (ENSG00000164292, 5 replicates): −1.529; change in translational profile of RHOBTB3 caused by TGFβ (ENSG00000164292, Control vs. TGFβ): B (B = <−1.5 to −2.5); Log2 TE TLR3 (ENSG00000164342, 5 replicates): −1.371; Log2 TE RPS14 (ENSG00000164587, 5 replicates): 1.684; change in translational profile of HCN1 caused by TGFβ (ENSG00000164588, Control vs. TGFβ): D (D = <1.0 to 1.5); Log2 TE WBSCR27 (ENSG00000165171, 5 replicates): 1.116; change in translational profile of RPL36AL caused by TGFβ (ENSG00000165502, Control vs. TGFβ): D (D = <1.0 to 1.5); Log2 TE RPL27A (ENSG00000166441, 5 replicates): 2.09; change in translational profile of RPL27A caused by TGFβ (ENSG00000166441, Control vs. TGFβ): F (F = >2.5); change in translational profile of RP11-382A20.3.1 caused by TGFβ (ENSG00000166503, Control vs. TGFβ): C (C = <−1.0 to −1.5); change in translational profile of ANKDD1A caused by TGFβ (ENSG00000166839, Control vs. TGFβ): C (C = <−1.0 to −1.5); Log2 TE RPL13 (ENSG00000167526, 5 replicates): 1.465; change in translational profile of RPL13 caused by TGFβ (ENSG00000167526, Control vs. TGFβ): E (E = <1.5 to 2.5); Log2 TE EEF2 (ENSG00000167658, 5 replicates): 2.323; change in translational profile of EEF2 caused by TGFβ (ENSG00000167658, Control vs. TGFβ): F (F = >2.5); Log2 TE RPSA (ENSG00000168028, 5 replicates): 1.359; Log2 TE TET2 (ENSG00000168769, 5 replicates): 1.377; Log2 TE ZNF608 (ENSG00000168916, 5 replicates): −1.59; Log2 TE SLC25A6 (ENSG00000169100, 5 replicates): 1.909; Log2 TE THBS3 (ENSG00000169231, 5 replicates): 1.188; Log2 TE CA5B (ENSG00000169239, 5 replicates): −1.791; change in translational profile of CA5B caused by TGFβ (ENSG00000169239, Control vs. TGFβ): B (B = <−1.5 to −2.5); Log2 TE KIAA1024 (ENSG00000169330, 5 replicates): 2.216; change in translational profile of KIAA1024 caused by TGFβ (ENSG00000169330, Control vs. TGFβ): F (F = >2.5); Log2 TE CRTAP (ENSG00000170275, 5 replicates): 1.022; Log2 TE TMC7 (ENSG00000170537, 5 replicates): 1.745; Log2 TE MURC (ENSG00000170681, 5 replicates): 3.678; change in translational profile of MURC caused by TGFβ (ENSG00000170681, Control vs. TGFβ): F (F = >2.5); change in translational profile of HTRA3 caused by TGFβ (ENSG00000170801, Control vs. TGFβ): C (C = <−1.0 to −1.5); Log2 TE RPS9 (ENSG00000170889, 5 replicates): 1.6139; Log2 TE PDGFD (ENSG00000170962, 5 replicates): −1.029; Log2 TE PDE7B (ENSG00000171408, 5 replicates): −2.782; change in translational profile of PDE7B caused by TGFβ (ENSG00000171408, Control vs. TGFβ): A (A = <−2.5); Log2 TE ZNF581 (ENSG00000171425, 5 replicates): 1.45; Log2 TE LPAR3 (ENSG00000171517, 5 replicates): −2.387; change in translational profile of LPAR3 caused by TGFβ (ENSG00000171517, Control vs. TGFβ): A (A = <−2.5); Log2 TE CTPS (ENSG00000171793, 5 replicates): 1.08
